# Experimental data as given in US12384800B2, “Antitumoral compounds” (priority 2017, dated 2025).
# Key:
# [1] = MTD (Maximum Tolerated Dose) determination, single iv administration; format: in vivo; conditions: mice, iv/SD (single dose), monitored up to 14 days
# Text: (§1) Female CD-1 or Athymic Nude-Fox1 nu/nu mice (Envigo) were utilized for all experiments. […] Animals were acclimated for five days prior to being individually tattoo-identified. Animal protocols were reviewed and approved according to the regional Institutional Animal Care and Use Committees.
# (§2) Mice were randomly allocated into experimental groups and intravenously administered, once for the MTD (Maximum Tolerated Dose) determination or one administration a week during three consecutive weeks, for the MTMD (Maximum Tolerated Multiple Dose) determination study. The animals were administered with white formulation or with compound dissolved in the experimental formulation at different concentrations. The volume administered was always […]. Once administered, animals were monitored for clinical signs of systemic toxicity, changes in body weight and mortality up to 14 days after the administration.
# [2] = MTMD (Maximum Tolerated Multiple Dose) determination, iv weekly x 3; format: in vivo; conditions: mice; iv/Q7d × 3
# Text: as §1, §2
# [3] = system: PSN1 cells (pancreas adenocarcinoma); assay: cells; conditions: Homo sapiens, PSN1, 72 h
# Method in brief: (§3)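 Cells seeded at 5000/well, attached 18 h, then exposed 72 h to ten 2/5 serial dilutions (10 to 0.003 μg/mL; 1% DMSO final) in triplicate; time-zero plate fixed. SRB staining after glutaraldehyde fixation; growth effects by NCI algorithm, four-parameter logistic fit.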
# [4] = system: HT29 cells (colorectal adenocarcinoma); assay: cells; conditions: Homo sapiens, HT-29, 72 h
# Method in brief: as §3
# [5] = system: MDA-MB-231 cells (breast adenocarcinoma); assay: cells; conditions: Homo sapiens, MDA-MB-231, 72 h
# Method in brief: as §3
# [6] = system: A549 cells (lung carcinoma, NSCLC); assay: cells; conditions: Homo sapiens, A549, 72 h
# Method in brief: as §3
# HT1080 tumors = assay: Human fibrosarcoma xenograft, total diameter (tumor + leg); conditions: iv Days 0, 7 and 14, 4-R 0.30 mg/kg
structure (smiles),measurement,setting,value
COc1ccc2[nH]c3c(c2c1)C[C@@H](CO)N[C@]31CS[C@@H]2c3c(OC(C)=O)c(C)c4c(c3[C@H](COC1=O)N1[C@@H]2[C@H]2c3c(cc(C)c(OC)c3O)C[C@@H]([C@@H]1O)N2C)OCO4 [Compound 19-S],MTD at 14 days,"[1]; female, mouse, in vivo",0.5 mg/kg
same,MTMD,[2],0.75 mg/kg
same,GI50,[3],2.95 nM
same,CC50,[3]; read-out: LC50,> 123 nM
same,IC (total growth inhibition),[3]; read-out: TGI,0.00319 µM
same,GI50,[4],1.35 nM
same,CC50,[4]; read-out: LC50,> 123 nM
same,IC (total growth inhibition),[4]; read-out: TGI,0.0016 µM
same,GI50,[5],1.96 nM
same,CC50,[5]; read-out: LC50,11 nM
same,IC (total growth inhibition),[5]; read-out: TGI,0.00331 µM
same,GI50,[6],3.07 nM
same,CC50,[6]; read-out: LC50,> 123 nM
same,IC (total growth inhibition),[6]; read-out: TGI,0.00331 µM
COc1c(C)cc2c(c1O)[C@@H]1[C@@H]3[C@@H]4SC[C@]5(N[C@@H](CO)Cc6c5[nH]c5ccccc65)C(=O)OC[C@@H](c5c6c(c(C)c(OC(C)=O)c54)OCO6)N3[C@@H](O)[C@H](C2)N1C [Compound 4-R],MTD,[1],0.25 mg/kg
same,MTMD,[2],0.30 mg/kg
same,Total diameter (tumor + leg),"HT1080 tumors; Day 0, PM01183 […]",8.1 mm
same,Total diameter (tumor + leg),"HT1080 tumors; Day 2, PM01183 […]",8.6 mm
same,Total diameter (tumor + leg),"HT1080 tumors; Day 7, PM01183 […]",8.7 mm
same,Total diameter (tumor + leg),"HT1080 tumors; Day 9, PM01183 […]",9.0 mm
same,Total diameter (tumor + leg),"HT1080 tumors; Day 14, PM01183 […]",9.3 mm
same,Total diameter (tumor + leg),"HT1080 tumors; Day 18, PM01183 […]",10.3 mm
same,Total diameter (tumor + leg),"HT1080 tumors; Day 21, PM01183 […]",11.5 mm
same,Total diameter (tumor + leg),"HT1080 tumors; Day 23, PM01183 […]",13.3 mm
same,Total diameter (tumor + leg),"HT1080 tumors; Day 25, PM01183 […]",15.8 mm
same,Total diameter (tumor + leg),HT1080 tumors; Day 28,18.0 mm
